The text below walks through data of BindingDB's records for doi:10.1016/j.bmcl.2009.04.143 (Incyte, 2009).

As a reminder, the IC50 is the midpoint of a concentration-inhibition curve. Read a low IC50 as inhibition by little substance.

A short description of this assay: Inhibition of HER2 extracellular domain sheddase activity in human BT474 cells after 72 hrs by ELISA. (In an ELISA, binding on a coated surface is turned into a signal by an enzyme label.)
As to `CN1CCN(C(=O)CC2CC[C@H](C(=O)N3CCN(c4ccccc4)CC3)[C@@H](C(=O)NO)C2)CC1` (mixture of isomers) [(1S,2S,5RS)-N-hydroxy-5-(2-(4-methylpiperazin-1-yl)-2-oxoethyl)-2-(4-phenylpiperazine-1-carbonyl)cyclohexanecarboxamide], the half-inhibitory concentration (IC50) worked out at 100 nM.

As to `O=C(NO)[C@H]1CC(CC(=O)N2CC[C@@H](O)C2)CC[C@@H]1C(=O)N1CCN(c2ccccc2)CC1` (mixture of isomers) [(1S,2S,5RS)-N-hydroxy-5-(2-((R)-3-hydroxypyrrolidin-1-yl)-2-oxoethyl)-2-(4-phenylpiperazine-1-carbonyl)cyclohexanecarboxamide], it took 226 nM to reach half-maximal inhibition (IC50). Against the preceding molecule, the IC50 is about 2.3-fold higher.

Take `O=C(NO)[C@H]1CC(CC(=O)N2CCOCC2)CC[C@@H]1C(=O)N1CCN(c2ccccc2)CC1` (mixture of isomers) [(1S,2S,5RS)-N-hydroxy-5-(2-morpholino-2-oxoethyl)-2-(4-phenylpiperazine-1-carbonyl)cyclohexanecarboxamide]: the IC50 turned out to be 208 nM.

Take `O=C(NO)[C@H]1CC(CC(=O)N2CCCC2)CN[C@@H]1C(=O)N1CCN(c2ccccc2)CC1` (mixture of isomers) [(2S,3S,5RS)-N-hydroxy-5-(2-oxo-2-(pyrrolidin-1-yl)ethyl)-2-(4-phenylpiperazine-1-carbonyl)piperidine-3-carboxamide]: the concentration for half-maximal inhibition (IC50) stood at 28 nM.

Molecule `O=C(NO)[C@H]1CC2(CC[C@@H]1C(=O)N1CCN(c3ccccc3)CC1)CC2` [(5S,6S)-N-hydroxy-6-(4-phenylpiperazine-1-carbonyl)spiro[2.5]octane-5-carboxamide] returned an IC50 of 100 nM.

In the case of `CN1CC(CC(=O)N2CCCCC2)C[C@H](C(=O)NO)[C@H]1C(=O)N1CCN(c2ccccc2)CC1` (mixture of isomers) [(2S,3S,5RS)-N-hydroxy-1-methyl-5-(2-oxo-2-(piperidin-1-yl)ethyl)-2-(4-phenylpiperazine-1-carbonyl)piperidine-3-carboxamide], the IC50 worked out at 102 nM. The IC50 values of the last two molecules are within 1.5-fold of each other.
